Laboratory results as given in patent US8318954B2, “Cleavable carnitine compound” (Nou Life Sciences, Inc., priority 2006, dated 2012).
“Also recorded” adds a separate entry of the source.

Legend:
[1] = tested on: C. elegans; assay: Thermal avoidance (TAV) 11 step dose response testing; format: in vivo; settings: highest concentration of LC, laser intensities 0% to 100% in 10% intervals, quadruplicate
Procedure: One 24 well microtiter plate was set up and incubated overnight on the shaker at 20° C. Each well on the plate was set up with 600 L3/L4-stage N2 animals in NGM with a 1:20 dilution of concentrated HB101 E. coli (food source) in a volume of 300 μl. Before the animal/HB101 solution was added, test compounds were pipetted into wells. For DMSO controls and compound stocks/dilutions in DMSO (LC) 3 μl was added to each well (1:100 dilutions). No OD620 measurements were taken but the animals were visually scored after 22 h incubation).
Dose Responses—setup & general notes on analysis: Same as for previous dose response experiments except that the data collection settings were modified. Per plate settings for the dose response experiments were as follows: […]

[2] = Hydrolysis study of LC Conjugate (pH/time study, followed by TLC); format: physicochemical
Procedure: Control: Free lipoic acid 1% solution in methanol/water
Substrate: LC Conjugate, 3% solution in methanol
A study on the stability and cleavability of LC Conjugate was performed in water at pH ranged from 5.5 to 8.0 at RT (20° C.).
The pH was adjusted using NaOH and HCl solutions.
Since substrate and cleaved products are non-UV sensitive, TLC was used to follow the progress of hydrolysis.

[3] = tested on: C. elegans; assay: Toxicity testing in C. elegans, 96 well plate, bacterial clearance (OD620); format: in vivo; settings: highest concentration tested, 2 mM; L1-stage N2 animals, OD620 up to 44 hours; listed as LC
Procedure: The work plan included a i) characterization of the compounds for toxicity in C. elegans and then, using subtoxic concentrations, a ii) characterization of compound effects on neuronal sensitivity as detected by TAV technology. Toxicity characterization follows a well established standard operating protocol used in previous toxicity-type assays in C. elegans. The initial TAV characterization of compound-mediated effects on C. elegans used a number of compound concentrations and incubation times that were selected by NemaRx as being most likely to detect any TAV-related effects that the compounds may have. […] 0% provides a ‘background’ measure, 6% typically gives intermediate TAV responses (and as such should provide a good starting point to detect compound-mediated increased TAV responses), and 12% usually gives robust responses. No obvious effects were detected for either of the four compounds. While the experimental setup provides a good first pass, the limitation lies in the relatively small number of animals that are assayed at each intensity (30). Subtle effects compound-mediated up-regulation at 6% laser intensity may be missed. • Single Intensity Testing: The two highest non-toxic compound concentrations for each of the four compounds were tested at 6% laser intensity. The number of datapoints collected was between 50-80 LA and >100 for the three other compounds. […] The experiment was carried out in quadruplicate. […] Stock Dilution Setup
Two 96 well microtiter plates set up which were incubated at 20 C (both 96 well plates were identical, i.e. the experiment was done in duplicate). Each well on the plates was set up with 100 L1-stage N2 animals in NGM with a 1:20 dilution of concentrated HB101 E. coli (food source) in a volume of 50 μl. Compounds (see below) were then added to the wells. For water controls and compound stocks/dilutions in water (DH LA, NAC) 1 μl was added to each well (1:50 dilutions). For DMSO controls and compound stocks/dilutions in DMSO (LA) 0.5 μl was added to each well (1:100 dilutions). […]

[4] = tested on: mice and rats; settings: mice and rats, cited from earlier work
[5] = tested on: Wobbler mice; settings: twenty days oral, acetyl L-carnitine 200 mg/kg, carnitine mixture 200 mg/kg, α-lipoic acid 50 mg/kg; cited from earlier work
[6] = tested on: diabetic rats; settings: streptozocin diabetic rats, sciatic nerve; amount administered not specified; cited from earlier work
[7] = tested on: streptozotocin-induced diabetic rats; settings: 20 mg/kg/day for two weeks, six weeks after diabetes induction; vs untreated diabetic rats; cited from earlier work
[8] = tested on: diabetic rats; settings: diabetic rat, 30 days after sciatic nerve cutting; diet: 200 mg/kg acetyl L-carnitine, 200 mg/kg carnitine mixture, 50 mg/kg α-lipoic acid daily; cited from earlier work
[9] = tested on: diabetic polyneuropathy patients; settings: cited from earlier work
[10] = tested on: rats; settings: 10 mg/kg cisplatin s.c. seven days, oral 300 mg/kg acetyl L-carnitine, 300 mg/kg carnitine mixture, 50 mg/kg α-lipoic acid; cited from earlier work

Row | Compound | sensitivity / response rate in 11 step dose response ([1]; listed as LC) | sensitivity / response rate in 11 step dose response ([1]; listed as Lipoic Acid+N-Acetyl Carnitine conjugate) | cleavability ([2]; under experimental conditions) | Rate of hydrolysis (cleavage) ([2]; water, pH 5.5 to 8.0, RT) | hydrolysis ([2]; water, pH 6.0, RT (20° C.), TLC, visual observation) | rate of hydrolysis ([2]; water, pH 7.0 and above, RT (20° C.), TLC, visual observation) | time within which almost complete hydrolysis was noted ([2]; water, pH 8.0, RT (20° C.), TLC, visual observation) [min] | stability ([2]; water, under pH 5.0, RT (20° C.), TLC, visual observation) | toxicity [3] | tolerability and toxicity ([4]; individually or in combination at high doses) | dose that can be parenterally administered ([4]; parenteral) [mg/kg] | % increase in running time [5] [%] | NMCV [6] [m/sec] | sciatic endoneutral blood flow [7] | sciatic motor nerve NCV [7] | Density of tibial nerve degenerate elements [8] [per 100 nm^2] | Number of tibial nerve degenerate elements [8] | neuropathic symptoms and defects ([9]; 600 mg i.v. per day for 3 weeks) | neuropathic defects and cardiac autonomic neuropathy ([9]; subsequent oral treatment for 4-7 months) | Equilibrium time [10] [s]
1 | Acetyl-L-Carnitine-Lipoic acid conjugate [LC Conjugate] | increases sensitivity not at lower stimulus intensities, but instead at higher intensities | Possible higher response rate at higher stimulus intensities | completely cleavable | pH dependent | Mild hydrolysis | quite noticeable | ≤ 90 | stable | No toxic effects; also recorded: no toxicity observed |  |  |  |  |  |  |  |  |  |  | 
2 | O=C(O)CCCCC1CCSS1 (centres unmarked) [LA, Lipoic acid] |  |  |  |  |  |  |  |  |  | good tolerability and limited toxicity | ≤ 100 | 40 ± 3.9 | 39.9 ± 2.1 | improved | improved | 0.20 ± 0.04 | 590 ± 0.70 | appears to reduce pain, paraethesia and numbness, and to improve neuropathic defects | reduces neuropathic defects an improves cardiac autonomic neuropathy | 9.9 ± 0.8
